Assays:
[1] = test system: Mus musculus; assay: Analgesic activity in Mus musculus Swiss albino (mouse) assessed as protection against acetic acid-induced writhing response at 20 mg/kg, po administered 30 min prior to acetic acid challenge measured at 2 hr relative to control; assay type: functional
[2] = test system: Mus musculus; assay: Analgesic activity in Mus musculus Swiss albino (mouse) assessed as protection against acetic acid-induced writhing response at 20 mg/kg, po administered 30 min prior to acetic acid challenge measured at 1 hr relative to control; assay type: functional
[3] = test system: Mus musculus; assay: Analgesic activity in Mus musculus Swiss albino (mouse) assessed as protection against acetic acid-induced writhing response at 20 mg/kg, po administered 30 min prior to acetic acid challenge measured at 0.5 hr relative to control; assay type: functional
[4] = test system: Mus musculus; assay: Ulcerogenic activity in Mus musculus Swiss albino (mouse) stomach assessed as decrease in ulcer spots at 60 mg/kg, po after 17 hr by hematoxylin-eosin staining relative to vehicle-treated control; assay type: toxicity, organism-based; set-up: dose 60 mg/kg, route oral; conditions: in vivo

Compound | Activity [1] | Activity [2] | Activity [3] | Activity [4]
COc1ccccc1-c1cc(-c2cc3cc(Br)ccc3oc2=O)nc(NCN2CCOCC2)n1 | 37.61% | 36.13% | 41.97% | –
COc1cccc(-c2cc(-c3cc4cc(Br)ccc4oc3=O)nc(NCN3CCOCC3)n2)c1 | 47.42% | 53.41% | 60.62% | –
O=c1oc2ccc(Br)cc2cc1-c1cc(-c2ccc(Cl)cc2Cl)nc(NCN2CCOCC2)n1 | 69.6% | 85.36% | 95.34% | Non-toxic
O=c1oc2ccc(Br)cc2cc1-c1cc(-c2c(Cl)cccc2Cl)nc(NCN2CCOCC2)n1 | 75.26% | 87.96% | 95.34% | –
O=c1oc2ccc(Br)cc2cc1-c1cc(-c2cccc(Cl)c2)nc(NCN2CCCCC2)n1 | 51.53% | 83.25% | 81.87% | –
O=c1oc2ccc(Br)cc2cc1-c1cc(-c2ccc(Cl)cc2)nc(NCN2CCCCC2)n1 | 61.86% | 77.47% | 83.94% | –
O=c1oc2ccc(Br)cc2cc1-c1cc(-c2ccccc2Br)nc(NCN2CCCCC2)n1 | 15.47% | 40.31% | 55.96% | –
O=c1oc2ccc(Br)cc2cc1-c1cc(-c2cccc(Br)c2)nc(NCN2CCCCC2)n1 | 39.16% | 37.7% | 41.97% | –
O=c1oc2ccc(Br)cc2cc1-c1cc(-c2ccc(Br)cc2)nc(NCN2CCCCC2)n1 | 32.47% | 41.88% | 49.74% | –
COc1ccccc1-c1cc(-c2cc3cc(Br)ccc3oc2=O)nc(NCN2CCCCC2)n1 | 33.5% | 65.44% | 77.72% | –
COc1cccc(-c2cc(-c3cc4cc(Br)ccc4oc3=O)nc(NCN3CCCCC3)n2)c1 | 35.05% | 63.87% | 74.09% | –
O=c1oc2ccc(Br)cc2cc1-c1cc(-c2ccc(Cl)cc2Cl)nc(NCN2CCCCC2)n1 | 38.14% | 69.12% | 83.94% | –
O=c1oc2ccc(Br)cc2cc1-c1cc(-c2c(Cl)cccc2Cl)nc(NCN2CCCCC2)n1 | 15.47% | 18.32% | 26.43% | –
O=c1oc2ccc(Br)cc2cc1-c1cc(-c2ccccc2Cl)nc(NCN2CCOCC2)n1 | 64.43% | 87.97% | 97.93% | –
O=c1oc2ccc(Br)cc2cc1-c1cc(-c2cccc(Cl)c2)nc(NCN2CCOCC2)n1 | 40.71% | 62.3% | 69.95% | –
O=c1oc2ccc(Br)cc2cc1-c1cc(-c2ccc(Cl)cc2)nc(NCN2CCOCC2)n1 | 55.68% | 89.54% | 98.45% | –
O=c1oc2ccc(Br)cc2cc1-c1cc(-c2ccccc2Br)nc(NCN2CCOCC2)n1 | 47.94% | 50.27% | 59.59% | –
O=c1oc2ccc(Br)cc2cc1-c1cc(-c2cccc(Br)c2)nc(NCN2CCOCC2)n1 | 47.42% | 45.55% | 52.33% | –
O=c1oc2ccc(Br)cc2cc1-c1cc(-c2ccc(Br)cc2)nc(NCN2CCOCC2)n1 | 46.89% | 51.3% | 61.66% | –
O=c1oc2ccc(Br)cc2cc1-c1cc(-c2ccccc2Cl)nc(NCN2CCCCC2)n1 | 52.06% | 84.83% | 89.64% | –
O=C([O-])Cc1ccccc1Nc1c(Cl)cccc1Cl.[Na+] [DICLOFENAC SODIUM] | 84.53% | 94.25% | 95.87% | –
